Key:
K-RAS G12C = target: T1, K-RAS G12C (Homo sapiens, UniProt P01116, G12C); test: Compound depletion assay, K-RAS G12C; assay type: binding; conditions: G12C protein 20 μM, compound 8 μM, 25° C.
T1 construct: His tag; purchased Stratech
Summary of the method: (§1)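 His-tagged K-RAS (20 μM) in 20 mM HEPES pH 7.5, 150 mM NaCl, 1 mM MgCl2 incubated with 8 μM compound (final) at 25 °C with agitation. At 0, 30, 180, 360, 1440 min, samples were acid/acetonitrile-quenched and remaining free compound quantified by LC-MS/MS against propranolol, as percent of time zero.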

K-RAS G12D = target: T2, K-RAS G12D (Homo sapiens, UniProt P01116, G12D); test: Compound depletion assay, K-RAS G12D; assay type: binding; conditions: G12D protein 20 μM, compound 8 μM, 25° C.
T2 construct: His tag; purchased Stratech
T2 sequence (P01116 1-188 isoform P01116-2 G12D): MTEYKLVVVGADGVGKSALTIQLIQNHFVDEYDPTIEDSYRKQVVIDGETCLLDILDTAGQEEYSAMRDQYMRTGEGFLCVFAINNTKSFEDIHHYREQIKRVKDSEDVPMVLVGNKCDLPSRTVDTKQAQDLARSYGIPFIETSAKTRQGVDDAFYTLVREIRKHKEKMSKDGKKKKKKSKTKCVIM
Summary of the method: as §1

T1 sequence (P01116 1-188 isoform P01116-2 G12C): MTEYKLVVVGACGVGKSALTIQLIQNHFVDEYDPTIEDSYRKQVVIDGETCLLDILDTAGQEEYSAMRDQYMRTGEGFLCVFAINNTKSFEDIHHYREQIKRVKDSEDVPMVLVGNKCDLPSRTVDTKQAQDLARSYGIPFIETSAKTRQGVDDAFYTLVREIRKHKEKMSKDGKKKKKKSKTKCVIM

| 30 min Category (compound remaining at timepoint) (K-RAS G12C) | 3 hr Category (compound remaining at timepoint) (K-RAS G12C) | 6 hr Category (compound remaining at timepoint) (K-RAS G12C) | 30 min Category (compound remaining at timepoint) (K-RAS G12D) | 3 hr Category (compound remaining at timepoint) (K-RAS G12D) | 6 hr Category (compound remaining at timepoint) (K-RAS G12D) | 24 hr Category (compound remaining at timepoint) (K-RAS G12C) | 24 hr Category (compound remaining at timepoint) (K-RAS G12D) | SMILES |
| --- | --- | --- | --- | --- | --- | --- | --- | --- |
| A (≥70% compound remaining at timepoint) | A (≥70% compound remaining at timepoint) | A (≥70% compound remaining at timepoint) | A (≥70% compound remaining at timepoint) | A (≥70% compound remaining at timepoint) | A (≥70% compound remaining at timepoint) |  |  | C=CC(=O)N1CCN(c2cc(C(=O)Nc3cc(O)cc4ccccc34)nc(-c3cccc4c3cnn4C)n2)C[C@@H]1CC#N [Example 38, 6-[(3S)-3-(cyanomethyl)-4-prop-2-enoyl-piperazin-1-yl]-N-(3-hydroxy-1-naphthyl)-2-(1-methylindazol-4-yl)pyrimidine-4-carboxamide] |
|  | A (≥70% compound remaining at timepoint) |  |  | A (≥70% compound remaining at timepoint) |  | A (≥70% compound remaining at timepoint) | A (≥70% compound remaining at timepoint) | C=CC(=O)N1CCN(c2cc(C(=O)Nc3cccc4ccccc34)nc(OCCN3CCOCC3)n2)CC1 [Example 07, 2-(2-morpholinoethoxy)-N-(1-naphthyl)-6-(4-prop-2-enoylpiperazin-1-yl)pyrimidine-4-carboxamide] |
|  | A (≥70% compound remaining at timepoint) |  |  | A (≥70% compound remaining at timepoint) |  | A (≥70% compound remaining at timepoint) | A (≥70% compound remaining at timepoint) | C=CC(=O)N1CCN(c2cc(C(=O)Nc3c(C)ccc4ncccc34)nc(OC[C@@H]3CCCN3C)n2)CC1 [Example 19, 2-[[(2S)-1-methylpyrrolidin-2-yl]methoxy]-N-(6-methyl-5-quinolyl)-6-(4-prop-2-enoylpiperazin-1-yl)pyrimidine-4-carboxamide] |
| A (≥70% compound remaining at timepoint) | A (≥70% compound remaining at timepoint) | A (≥70% compound remaining at timepoint) | A (≥70% compound remaining at timepoint) | A (≥70% compound remaining at timepoint) | A (≥70% compound remaining at timepoint) |  |  | C=CC(=O)N1C[C@@H]2C[C@H]1CN2c1cc(C(=O)Nc2cc(O)cc3ccccc23)nc(OC[C@@H]2CCCN2C)n1 [Example 23, N-(3-hydroxy-1-naphthyl)-2-[[(2S)-1-methylpyrrolidin-2-yl]methoxy]-6-[(1S,4S)-2-prop-2-enoyl-2,5-diazabicyclo[2.2.1]heptan-5-yl]pyrimidine-4-carboxamide] |
|  | A (≥70% compound remaining at timepoint) |  |  | A (≥70% compound remaining at timepoint) |  | A (≥70% compound remaining at timepoint) | A (≥70% compound remaining at timepoint) | C=CC(=O)N1CCN(c2cc(C(=O)Nc3ccc(O)cc3)nc(OC[C@@H]3CCCN3C)n2)CC1 [Example 05] |
|  | A (≥70% compound remaining at timepoint) |  |  | A (≥70% compound remaining at timepoint) |  | A (≥70% compound remaining at timepoint) | A (≥70% compound remaining at timepoint) | C=CC(=O)N1CCN(c2cc(C(=O)Nc3ccccc3O)nc(OC[C@@H]3CCCN3C)n2)CC1 [Example 06, N-(2-hydroxyphenyl)-2-[[(2S)-1-methylpyrrolidin-2-yl]methoxy]-6-(4-prop-2-enoylpiperazin-1-yl)pyrimidine-4-carboxamide] |

| SMILES | 30 min Category (compound remaining at timepoint) (K-RAS G12C) | 3 hr Category (compound remaining at timepoint) (K-RAS G12C) | 6 hr Category (compound remaining at timepoint) (K-RAS G12C) | 30 min Category (compound remaining at timepoint) (K-RAS G12D) | 3 hr Category (compound remaining at timepoint) (K-RAS G12D) | 6 hr Category (compound remaining at timepoint) (K-RAS G12D) | 24 hr Category (compound remaining at timepoint) (K-RAS G12C) | 24 hr Category (compound remaining at timepoint) (K-RAS G12D) |
| --- | --- | --- | --- | --- | --- | --- | --- | --- |
| C=CC(=O)N1CCN(c2cc(C(=O)Nc3cc(O)cc4ccccc34)nc(NCCN3CCN(C)CC3)n2)C[C@@H]1CC#N [Example 27, 6-[(3S)-3-(cyanomethyl)-4-prop-2-enoyl-piperazin-1-yl]-N-(3-hydroxy-1-naphthyl)-2-[2-(4-methylpiperazin-1-yl)ethylamino]pyrimidine-4-carboxamide] | A (≥70% compound remaining at timepoint) | B (30%-70% compound remaining at timepoint) | C (≤30% compound remaining at timepoint) | A (≥70% compound remaining at timepoint) | A (≥70% compound remaining at timepoint) | A (≥70% compound remaining at timepoint) |  |  |
| C=CC(=O)N1CCN(c2cc(C(=O)Nc3cc(O)cc4ccccc34)nc(NCc3ccnn3C)n2)C[C@@H]1CC#N [Example 41, 6-[(3S)-3-(cyanomethyl)-4-prop-2-enoyl-piperazin-1-yl]-N-(3-hydroxy-1-naphthyl)-2-[(2-methylpyrazol-3-yl)methylamino]pyrimidine-4-carboxamide] | A (≥70% compound remaining at timepoint) | B (30%-70% compound remaining at timepoint) | B (30%-70% compound remaining at timepoint) | A (≥70% compound remaining at timepoint) | A (≥70% compound remaining at timepoint) | A (≥70% compound remaining at timepoint) |  |  |
| C=CC(=O)N1CCN(c2cc(C(=O)Nc3cc(O)cc4ccccc34)nc(NC[C@@H]3CCCN3CCO)n2)C[C@@H]1CC#N [Example 46, 6-[(3S)-3-(cyanomethyl)-4-prop-2-enoyl-piperazin-1-yl]-2-[[(2S)-1-(2-hydroxyethyl)pyrrolidin-2-yl]methylamino]-N-(3-hydroxy-1-naphthyl)pyrimidine-4-carboxamide] | B (30%-70% compound remaining at timepoint) | C (≤30% compound remaining at timepoint) | C (≤30% compound remaining at timepoint) | A (≥70% compound remaining at timepoint) | A (≥70% compound remaining at timepoint) | A (≥70% compound remaining at timepoint) |  |  |
| C=CC(=O)N1CCN(c2cc(C(=O)Nc3cc(O)cc4ccccc34)nc(NCCN3CCOCC3)n2)C[C@@H]1CC#N [Example 28, 6-[(3S)-3-(cyanomethyl)-4-prop-2-enoyl-piperazin-1-yl]-N-(3-hydroxy-1-naphthyl)-2-(2-morpholinoethylamino)pyrimidine-4-carboxamide] | A (≥70% compound remaining at timepoint) | A (≥70% compound remaining at timepoint) | B (30%-70% compound remaining at timepoint) | A (≥70% compound remaining at timepoint) | A (≥70% compound remaining at timepoint) | A (≥70% compound remaining at timepoint) |  |  |
| C=CC(=O)N1CCN(c2cc(C(=O)Nc3cc(O)cc4ccccc34)nc(-c3ccccn3)n2)C[C@@H]1CC#N [Example 31, 6-[(3S)-3-(cyanomethyl)-4-prop-2-enoyl-piperazin-1-yl]-N-(3-hydroxy-1-naphthyl)-2-(2-pyridyl)pyrimidine-4-carboxamide] | A (≥70% compound remaining at timepoint) | B (30%-70% compound remaining at timepoint) | B (30%-70% compound remaining at timepoint) | A (≥70% compound remaining at timepoint) | A (≥70% compound remaining at timepoint) | A (≥70% compound remaining at timepoint) |  |  |
| C=CC(=O)N1CCN(c2cc(C(=O)Nc3cc(O)cc4ccccc34)nc(OCc3cnn(C)c3)n2)C[C@@H]1CC#N [Example 42, 6-[(3S)-3-(cyanomethyl)-4-prop-2-enoyl-piperazin-1-yl]-N-(3-hydroxy-1-naphthyl)-2-[(1-methylpyrazol-4-yl)methoxy]pyrimidine-4-carboxamide] | B (30%-70% compound remaining at timepoint) | C (≤30% compound remaining at timepoint) | C (≤30% compound remaining at timepoint) | A (≥70% compound remaining at timepoint) | A (≥70% compound remaining at timepoint) | A (≥70% compound remaining at timepoint) |  |  |
| C=CC(=O)N1CCN(c2cc(C(=O)Nc3cc(O)cc4ccccc34)nc(-c3cccc4cnn(C)c34)n2)C[C@@H]1CC#N [Example 39, 6-[(3S)-3-(cyanomethyl)-4-prop-2-enoyl-piperazin-1-yl]-N-(3-hydroxy-1-naphthyl)-2-(1-methylindazol-7-yl)pyrimidine-4-carboxamide] | A (≥70% compound remaining at timepoint) | B (30%-70% compound remaining at timepoint) | B (30%-70% compound remaining at timepoint) | A (≥70% compound remaining at timepoint) | A (≥70% compound remaining at timepoint) | A (≥70% compound remaining at timepoint) |  |  |

From patent publication US12612387B2, “RAS inhibitors and methods of using the same” (Jazz Pharmaceuticals Ireland Limited, priority 2020, dated 2026)
